Molecular target: T1, Amine oxidase [flavin-containing] A (Homo sapiens, UniProt P21397)
T1 sequence (P21397 whole entry): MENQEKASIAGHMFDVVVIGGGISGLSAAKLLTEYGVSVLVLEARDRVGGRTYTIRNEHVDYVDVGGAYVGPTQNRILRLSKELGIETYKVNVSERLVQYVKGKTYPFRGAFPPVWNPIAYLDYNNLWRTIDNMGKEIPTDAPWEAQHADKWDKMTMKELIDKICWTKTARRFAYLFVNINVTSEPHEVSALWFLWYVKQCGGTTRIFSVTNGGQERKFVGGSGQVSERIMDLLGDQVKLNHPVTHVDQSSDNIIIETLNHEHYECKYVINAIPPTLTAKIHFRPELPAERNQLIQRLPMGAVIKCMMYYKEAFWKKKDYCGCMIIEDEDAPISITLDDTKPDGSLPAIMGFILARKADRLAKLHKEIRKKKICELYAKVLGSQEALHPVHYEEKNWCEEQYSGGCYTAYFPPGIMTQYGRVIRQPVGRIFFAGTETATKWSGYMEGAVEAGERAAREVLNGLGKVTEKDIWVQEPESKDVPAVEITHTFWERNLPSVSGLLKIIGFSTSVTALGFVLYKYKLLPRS
Assay: Fluorescence-Based (Inhibitor)-Screening Assay: In order to monitor MAO enzymatic activities and/or their inhibition rate by inhibitor(s) of interest, a fluorescence-based (inhibitor)-screening assay was set up. 3-(2-Aminophenyl)-3-oxopropanamine (kynuramine dihydrobromide, Sigma Aldrich), a non fluorescent compound was chosen as a substrate. Kynuramine is a non-specific substrate for both MAO-A and MAO-B activities. While undergoing oxidative deamination by MAO activities, kynuramine is converted into 4-hydroxyquinoline (4-HQ), a resulting fluorescent product.The monoamine oxidase activity was estimated by measuring the conversion of kynuramine into 4-hydroxyquinoline. Assays were conducted in 96-well black plates with clear bottom (Corning) in a final volume of 100 uL. The assay buffer was 100 mM HEPES, pH 7.5. […] Clorgyline and Deprenyl (Sigma Aldrich) was used as a control for specific inhibition of MAO-A and MAO-B respectively. After leaving the enzyme(s) interacting with the inhibitor, KM of kynuramine was added to each reaction for MAO-B and MAO-A assay respectively, and the reaction was left for 1 hour at 37° C. in the dark. The oxidative deamination of the substrate was stopped by adding 50 uL of NaOH 2N. […] The IC50 values of each inhibitor were calculated with GraphPad Prism Software.

N[C@H]1CC[C@H](N[C@@H]2C[C@H]2c2ccccc2)CC1
Ki: > 40 µM

Source: ChEMBL document CHEMBL3886143, “(Hetero)aryl cyclopropylamine compounds as LSD1 inhibitors” (2016)
